For data set [1], the system named is DCX positive cells in the GCL. As to the kind of experiment: Doublecortin positive fraction of the GCL (Example 2). The following applies: 10 mM/kg/day IP, two weeks, sodium salt. Format: in vivo, mouse. The protocol: Perfusion, sectioning and, staining: For perfusion, cryosectioning and immunofluorescence staining, see Bjornsson et al. (2014). EdU (Life Sciences) in PBS/6% DMSO (10 mg/ml) injections (50 μg/g/day) were performed either with seven consecutive days followed by immediate perfusion or seven consecutive days of injection and then perfusion on the 30th day after the first injection. […] EdU was imaged with Click-iT EdU Alexa Flour 488 Imaging Kit (Invitrogen) as well as DAPI mounting with Vectamount (Vector Laboratories, Burlingame, Calif.). EdU quantification was done blinded to genotype. Labeled cells were counted in every sixth slice in the granule cell layer of the dentate gyrus and average number per slice was calculated for each brain. For immunofluorescence, primary antibodies included Doublecortin (Santa Cruz Biotechnology, 1:200 goat), trimethylated H3K4 (Cell Signaling, Danvers, Mass.; 1:500 rabbit), and Acetylated H3K9 and […] (Cell Signaling, 1:5000). Primary antibodies were incubated overnight at 4° C. in blocking buffer. Doublecortin area measurement: The DCX positive fraction of the GCL was measured by taking 4× pictures and using the Bezier tool on NS elements 2.0 software (Nikon) to measure the area of cells that expressed DCX as well as the entire granule cell layer.

Data set [2] concerns H3K4me3 indicator in HEK 293 cells. As to the kind of experiment: H3K4me3 indicator experiment with BHB, FACS. The class given is cell-based. As to conditions: 24 hours before FACS; sodium salt. The protocol: (§1) Indicator experiments: HEK 293 cells were transfected with lipofectamine LTX (Invitrogen, Carlsbad, Calif.) with either the H3K4me3 indicator or the H4ac indicator, synthesized by OriGene Technologies (Rockville, Md.). Stable transfections were maintained through positive selection with blastacidin […] (Life Technologies, Grand Island, N.Y.). For BHB treatment, (R)-(−)-3-Hydroxybutyric acid sodium salt (Santa Cruz Biotechnology) was added to the medium 24 hours before FACS analysis (FACSVerse, BD Biosciences, Franklin Lakes, N.J.). Data was analyzed using FlowJo (Tree Star Inc., Ashland, Oreg.).

The subject of data set [3] is H4ac indicator in HEK 293 cells. Put plainly: H4ac indicator experiment with BHB, FACS. Format: cell-based. As to conditions: 24 hours before FACS; sodium salt. The protocol: as §1
Data set [4] can be described thus: BHB in urine, colorimetric assay. The class given is in vivo, mouse. The method, then: BHB injection and BHB assay: For injections into mice, (R)-(−)-3-hydroxybutyric acid sodium salt (Santa Cruz Biotechnology, Dallas, Tex.) was used at an experimental dose of (10 mM/kg). To detect BHB in the urine (from either injections or ketogenic diet), the β-Hydroxybutyrate (Ketone Body) Colorimetric Assay Kit (Cayman Chemical Company, Ann Arbor, Mich.) was used. Urine from injections was drawn approximately 2 hours after injection and urine from mice on the ketogenic diet was taken in the early afternoon (unless otherwise stated in the text).

Another data set relates to EdU+ cells in the GCL. As to the kind of experiment: EdU incorporation in the GCL (proliferation / survival). The following applies: 10 mM/kg/day IP, two weeks, sodium salt. Format: in vivo, mouse. An excerpt:
Animals and treatment: The mouse model, Kmt2d^+/βGeo, also known as (Mll2Gt^(RRt024)Byg), was generated by BayGenomics (University of California, CA) through insertion of a gene trapped vector, and was used on a fully backcrossed C57BL/6J background. The original unbalanced (6:1 fat to protein ration) diet was purchased from Bio-Sery (Ketogenic Diet AIN-76A-Modified High Fat Paste F3666; Flemington, N.J.), while the balanced diet (4:1 ratio) was also from Bio-Serv (F6689 Rodent Diet, Ketogenic, Fat: Paste). Mice were treated for two weeks on the diet, with the paste replaced several times a week. During MWM testing, given the length of testing (week), the mice were treated for three weeks.
BHB injection and BHB assay: For injections into mice, (R)-(−)-3-hydroxybutyric acid sodium salt (Santa Cruz Biotechnology, Dallas, Tex.) was used at an experimental dose of (10 mM/kg). To detect BHB in the urine (from either injections or ketogenic diet), the β-Hydroxybutyrate (Ketone Body) Colorimetric Assay Kit (Cayman Chemical Company, Ann Arbor, Mich.) was used. […]
Perfusion, sectioning and, staining: For perfusion, cryosectioning and immunofluorescence staining, see Bjornsson et al. (2014). […] EdU quantification was done blinded to genotype. Labeled cells were counted in every sixth slice in the granule cell layer of the dentate gyrus and average number per slice was calculated for each brain. […]

In data set [5] the test system is H3K4 trimethylation and histone acetylation. As to conditions: Huang et al. (2011); cited from earlier work.
The test system of data set [6] is H3K4 trimethylation activity in Kmt2d^+/βGeo and Kmt2d^+/+ MEFs. Put plainly: H3K4me3 indicator in murine embryonic fibroblasts (MEFs). Format: cell-based, mouse. As to conditions: Kmt2d^+/βGeo cells treated with HDAC inhibitor. An excerpt: An H3K4 trimethylation reporter was also created. This reporter is based on the H3 tail on one end and the TBP associated factor III (TAFIII) homeodomain on the other end; the TAFIII homeodomain only identifies and binds to trimethylated K4 on H3. When the H3K4 site gets trimethylated, the TAFIII homeodomain can bind to the modified H3 tail and bring the two parts of the separated GFP in close proximity. The activity of the epigenetic modification system can be quantified through fluorescence.
(§2) Epigenetic reporter alleles: Epigenetic reporter alleles were synthesized (OriGene, Rockville, Md.) using published sequences for component elements (Baird et al. (1999) Proc. Nail. Acad. Sci. 96:11241-6; Souslova et al. (2007) BMC Biotechnol. 7:37). Single nucleotide mutations were created using the QuickChange Lightening kit (Agilent Technologies Inc, Santa Clara, Calif.). For H4ac indicator, K5R, K8R, K12R, K16R and K20R (MUT indicator) were introduced. For H3K4me3 indicator, K4Q and D890A/W891A and M882A (three separate constructs) were introduced. For transient transfections, mouse embryonic fibroblasts (see below) were transfected with Fugene HD (Promega, Madison, Wis.), 48 hours prior to FACS. […] For drug stimulation, drug was added to the media 24 hours prior to FACS. For stable transfections in T293 (American Type Culture Collection) cells, 10 μg/ml of Blastocidin (Life Technologies, Carlsbad, Calif.) was added to the media for several weeks. For stable transfection in MEFs, the reporter was transferred to a ViraPower Lentiviral Expression System (Life Technologies, Carlsbad, Calif.). After selection with Blastocidin, the drug of interest was added 24 hours prior to FACS. SAHA, AR-42 and MS275 were purchased from Selleck (Selleck Chemicals, Houston, Tex.). […] FACS data were analyzed using FlowJo (Tree Star Inc, Ashland, Oreg.). A plasmid expressing HDAC3 was acquired from Addgene (Cambridge, Mass., plasmid 13819) and transfected into a stable cell line carrying the H4 acetyl reporter allele.

Data set [7] deals with H4ac indicator (H4 acetylation machinery activity) in HEK293 cells. Put plainly: H4ac (acetylation) indicator reporter assay, FACS. The class given is cell-based.
Description: Design of the indicator constructs. A genetically encoded histone reporter allele system has been developed which can be used to monitor activity of any histone maintenance machinery component in live cells. Previously, FRET based epigenetic activity systems have been created (Lin and Ting (2004) Angew Chem Int Ed Engl. 24;43 (22):2940-3; Lin et al. (2004) J. Am. Chem. Soc. 19;126(19):5982-3; U.S. Pat. No. 7,056,683). However, FRET-based assays need a complex technological setup which is not widely available and FRET-based assays have been much more difficult to introduce into transgenic mouse models. […] The particular construct design is based on a circularly permutated green fluorescent protein (GFP) that lacks fluorescence unless the two parts of GFP are brought into close proximity by external forces (Baird et al. (1999) Proc. Natl. Acad. Sci. U.S.A. 28;96(20):11241-6). The constructs are targeted to the nucleus through a nuclear localization signal (NLS). Mutants were also created that knocked out the activity of the indicator allele.
The acetyl reporter protein quantifies the activity of the acetylation machinery (acetylation of H4 specifically at the 5th, 8th, 12th and 16th Lysine's) and comprises an H4 tail on one end (the target for acetylation) and a TBP associated factor II (TAFII) bromodomain on the other end of the reporter protein. The TAFII bromodomain only recognizes and binds to the acetylated H4 tail, resulting in reconstitution of GFP structure and function (i.e. fluorescence). Therefore, the reporter protein has no fluorescence unless it is acetylated by the acetylation system of the nucleus of the cell.
as §2

Structures are written as SMILES. Entries after “also recorded” stand apart in the source; their conditions may differ.

Regarding `C[C@@H](O)CC(=O)[O-].[Na+]` [BHB, (R)-(−)-3-hydroxybutyric acid sodium salt], the “DCX positive cells, treated Kmt2d^+/βGeo versus treated Kmt2d^+/+” value in data set [1] is reported as “not to Kmt2d^+/+ BHB treated levels; also recorded: did not lead to a full recovery”. In data set [1] (Kmt2d^+/βGeo), the “DCX positive cells, treated versus vehicle” value is reported as “increase in DCX expression; also recorded: significant increase in DCX positive cells”. In data set [2], the “H3K4me3 indicator response to increased amounts in culture media” value is “dose-dependent increased activity; also recorded: dose-dependent response”. For the same molecule, the “H4Ac indicator response to increased amounts in culture media” value in data set [3] is on record as “dose-dependent increased activity; also recorded: dose-dependent response”. Besides, the “BHB level in the urine over a 12 hour day after one injection” value in data set [4] (10 mM/kg at 9 AM) is listed as “decreased to vehicle injected levels over a matter of hours”. Besides, the “BHB level in the urine after injection” value in data set [4] (10 mM/kg, urine after 1.5 hours) was “most similar to treatment with a ketogenic diet”. Moreover, the “time of maximal drug activity” value in data set [4] (after injection) amounted to 1.5 h. Moreover, the “EdU positive cells, treated Kmt2d^+/βGeo versus Kmt2d^+/+” value in the data set on EdU+ cells in the GCL was “did not recover back; also recorded: did not lead to a full recovery”. Further, in the data set on EdU+ cells in the GCL (Kmt2d^+/βGeo), the “EdU positive cells (proliferation), treated versus vehicle” value was “significant increase in EdU expression; also recorded: significant increase in EdU positive cells”.
On to `Nc1ccccc1NC(=O)c1ccc(CNC(=O)OCc2cccnc2)cc1` [MS275, Pyridin-3-ylmethyl N-[[4-[(2-aminophenyl)carbamoyl]phenyl]methyl]carbamate], for which the “effect on H3K4 trimethylation and histone acetylation” value in data set [5] was “increase H3K4 trimethylation and histone acetylation”. The H3K4 trimethylation activity result in data set [6] is on record as “enhanced; also recorded: improved”.
In the case of `O=C(CCCCCCC(=O)Nc1ccccc1)NO` [SAHA, N′-hydroxy-N-phenyl-octanediamide], the “cells easily discriminated from auto fluorescence (H4ac indicator)” value in data set [7] (1 μM of SAHA) is reported as 5%; in data set [7] (2.5 μM of SAHA), 20%; in data set [7] (7.5 μM of SAHA), 40%; in data set [7] (10 μM of SAHA) it was 45%. Also, the “fluorescence response of acetylation indicator to increasing amounts of drug” value in data set [7] (FACS, culture systems) is “linear fluorescence response; also recorded: increasing fluorescence”. The “acetylation of the indicator” value in data set [7] (FIG. 18A) was “increases acetylation of the indicator”. Moreover, in data set [7] (HEK293 cells stably expressing the H4ac indicator), the “H4ac indicator signal upon stimulation” value is listed as “increased signal”.

These data come from patent publication US10568854B2, “Compositions and methods for treating kabuki syndrome and related disorders” (THE JOHNS HOPKINS UNIVERSITY, priority 2014, dated 2020).
